Measured values from BindingDB's records for doi:10.1016/s0960-894x(99)00670-8 (Institute, 2000).

Assay: Binding affinity was determined against Opioid receptor delta 1 obtained from guinea pig brain membranes using [3H]naltrindole as radioligand

C[C@H]1C2Cc3ccc(N)cc3[C@@]1(C)CCN2CC1CC1 [3-Cyclopropylmethyl-6,11-dimethyl-1,2,3,4,5,6-hexahydro-2,6-methano-benzo[d]azocin-8-ylamine]
Ki: 12 nM
